Patent US20240076609A1, “COMPOSITIONS AND METHODS FOR CULTURING AND EXPANDING CELLS” (LIFE TECHNOLOGIES CORPORATION, priority 2017, published 2024)
Where “and” joins values, the source holds several entries; their conditions need not be identical. Equal entries are not always repeated.

Assays:
[1] = tested on: mixed CD4+ T cells and CD8+ T cells; experiment: Expansion of mixed CD4+ and CD8+ T cells at set ratios (5:1, 10:1) with 2-DG; type: cell-based, human; conditions: for Cultured T Cell Population Doublings at 5:1 CD4+:CD8+ Cells / Cultured T Cell Population Doublings at 10:1 CD4+:CD8+ Cells: 0.25 mM 2-DG
Protocol: T cell activation and expansion: T cells (seeding density 1×10^6 vc/mL) were activated with DYNABEADS® Human T-Expander CD3/CD28 (Thermo Fisher Scientific, Cat. No. 11141D) at a ratio of 3 beads per T cell and cultured in serum-free medium, animal origin free medium. T cells were counted on days 5, 7, 10, and 12 on a Vi-CELL XR analyzer (Beckman Coulter, Indianapolis IN) and fed with or without 2-DG (0.25 mM, 0.5 mM, 1 mM, 2 mM, and 4 mM) and 5% human AB serum to a density of 5×10^5 vc/mL on days 3, 5, and 7 and 1×10^6 vc/mL on day 10. For some studies, CD8+ and CD4+ T cells were isolated from PBMCs by negative selection using Untouched Human CD8+ and CD4+ T Cells Kits. Naïve and non-naïve T cells were isolated from enriched T cells by positive selection using CD45RA nanobeads (Miltenyi). CD4+ and CD8+ T cells were mixed at two different CD4+:CD8+ ratios (5:1 and 10:1) to determine the effect of 2-DG on CD8+ T cells. All conditions with and without 2-DG expanded to about 6 to 7 population doublings. Results illustrate that the effect of 2-DG treatment in cell growth was similar in both mixtures. (FIGS. 19 and 20). In FIGS. 38 and 39, CD4+ and CD8+ T cells were mixed at two different CD4:CD8 ratios (5:1 and 10:1) to determine the effect of 2-DG on CD8+ T cells. All conditions with and without 2-DG expanded to about 6 to 7 population doublings. Results illustrate that the effect of 2-DG treatment in cell growth was similar in both mixtures.

Pan CD3+ T cells = experiment: T cell expansion with 2-DG titration (population doublings); type: cell-based, human
Protocol: 2-Deoxy-D-Glucose Preparation: 2-Deoxy-D-Glucose (2-DG, 164.16 g/mol) was manufactured by (Acros Organics, cat. no. 111980-250). The 2-DG solution was prepared in sterile filtered water at a stock concentration of 100 mM, then aliquoted in Eppendorf tubes at a final volume of 1 mL in each tube. Cell Culture: T cell isolation: De-identified, frozen apheresis bags from normal donors were obtained from HemaCare Corp. Van Nuys, CA 91406. T cells were negatively isolated from PBMCs with the DYNABEADS® […] Human T Cells kit (Thermo Fisher Scientific, Cat. No. 11344D). T cell activation and expansion: T cells (seeding density 1×10^6 vc/mL) were activated with DYNABEADS® Human T-Expander CD3/CD28 (Thermo Fisher Scientific, Cat. No. 11141D) at a ratio of 3 beads per T cell and cultured in serum-free medium, animal origin free medium. T cells were counted on days 5, 7, 10, and 12 on a Vi-CELL XR analyzer (Beckman Coulter, Indianapolis IN) and fed with or without 2-DG (0.25 mM, 0.5 mM, 1 mM, 2 mM, and 4 mM) and 5% human AB serum to a density of 5×10^5 vc/mL on days 3, 5, and 7 and 1×10^6 vc/mL on day 10. 2-Deoxy-D-Glucose Preparation: 2-Deoxy-D-Glucose (2-DG, 164.16 g/mol) is manufactured by Acros Organics (part of Thermo Fisher Scientific). The 2-DG solution was prepared in sterile filtered water at a stock concentration of 100 mM, then aliquoted in Eppendorf tubes at a final volume of 1 mL in each tube. Cell Culture: T cell isolation: De-identified, frozen apheresis bags from normal donors were obtained from HemaCare. T cells were negatively isolated from PBMCs with the DYNABEADS® […] Human T Cells kit (Thermo Fisher Scientific, Cat. No. 11344D). T cell activation and expansion: T cells (seeding density 1×10^6 vc/mL) were activated with DYNABEADS® Human T-Expander CD3/CD28 (Thermo Fisher Scientific, Cat. No. 11141D) at a ratio of 3 beads per T cell and cultured in serum-free medium, animal origin free medium. T cells were counted on days 5, 7, 10, and 12 on a Vi-CELL XR analyzer (Beckman Coulter, Indianapolis IN) and fed with or without 2-DG (0.25 mM, 0.5 mM, 1 mM, 2 mM, and 4 mM) and 5% human AB serum to a density of 5×10^5 vc/mL on days 3, 5, and 7 and 1×10^6 vc/mL on day 10.

Compound: O=CC[C@@H](O)[C@H](O)[C@H](O)CO [2-DG, 2-Deoxy-D-Glucose]
- Cultured T Cell Population Doublings at 5:1 CD4+:CD8+ Cells ([1]; day 5): 2.84 and 1.95
- Cultured T Cell Population Doublings at 10:1 CD4+:CD8+ Cells ([1]; day 5): 1.97
- Cultured T Cell Population Doublings at 5:1 CD4+:CD8+ Cells ([1]; day 7): 5.44 and 2.84
- Cultured T Cell Population Doublings at 10:1 CD4+:CD8+ Cells ([1]; day 7): 2.98
- Cultured T Cell Population Doublings at 5:1 CD4+:CD8+ Cells ([1]; day 10): 6.17 and 5.44
- Cultured T Cell Population Doublings at 10:1 CD4+:CD8+ Cells ([1]; day 10): 5.67
- Cultured T Cell Population Doublings at 10:1 CD4+:CD8+ Cells ([1]; day 12): 6.25
- population doublings ([1]; CD4+:CD8+ ratios 5:1 and 10:1): 6 to 7 population doublings
- Cultured T Cell Population Doublings (Pan CD3+ T cells; 0.25 mM 2-DG, day 5, Table 12): 1.79
- Cultured T Cell Population Doublings (Pan CD3+ T cells; 0.25 mM 2-DG, day 5, single values, Table 31): 1.44 and 1.64 and 1.57
- Cultured T Cell Population Doublings (Pan CD3+ T cells; 0.25 mM 2-DG, day 7, Table 12): 3.67
- Cultured T Cell Population Doublings (Pan CD3+ T cells; 0.25 mM 2-DG, day 7, single values, Table 31): 3.40 and 3.54 and 3.35
- Cultured T Cell Population Doublings (Pan CD3+ T cells; 0.25 mM 2-DG, day 10, Table 12): 6.20
- Cultured T Cell Population Doublings (Pan CD3+ T cells; 0.25 mM 2-DG, day 10, single values, Table 31): 4.85 and 5.70 and 5.81
- Cultured T Cell Population Doublings (Pan CD3+ T cells; 0.25 mM 2-DG, day 12, Table 12): 6.49
- Cultured T Cell Population Doublings (Pan CD3+ T cells; 0.25 mM 2-DG, day 12, single values, Table 31): 5.72 and 6.57 and 6.47
- Cultured T Cell Population Doublings (Pan CD3+ T cells; 0.5 mM 2-DG, day 5, Table 12): 1.81
- Cultured T Cell Population Doublings (Pan CD3+ T cells; 0.5 mM 2-DG, day 5, single values, Table 31): 1.40 and 1.69 and 1.04
- Cultured T Cell Population Doublings (Pan CD3+ T cells; 0.5 mM 2-DG, day 7, Table 12): 4.17
- Cultured T Cell Population Doublings (Pan CD3+ T cells; 0.5 mM 2-DG, day 7, single values, Table 31): 3.95 and 3.32 and 3.33
- Cultured T Cell Population Doublings (Pan CD3+ T cells; 0.5 mM 2-DG, day 10, Table 12): 6.07
- Cultured T Cell Population Doublings (Pan CD3+ T cells; 0.5 mM 2-DG, day 10, single values, Table 31): 5.06 and 6.28 and 6.75
- Cultured T Cell Population Doublings (Pan CD3+ T cells; 0.5 mM 2-DG, day 12, Table 12): 6.16
- Cultured T Cell Population Doublings (Pan CD3+ T cells; 0.5 mM 2-DG, day 12, single values, Table 31): 6.13 and 6.22 and 6.48
- Cultured T Cell Population Doublings (Pan CD3+ T cells; 1 mM 2-DG, day 5, Table 12): 1.15
- Cultured T Cell Population Doublings (Pan CD3+ T cells; 1 mM 2-DG, day 5, Table 25): 2.08
- Cultured T Cell Population Doublings (Pan CD3+ T cells; 1 mM 2-DG, day 7, Table 12): 3.40
- Cultured T Cell Population Doublings (Pan CD3+ T cells; 1 mM 2-DG, day 7, Table 25): 3.87
- Cultured T Cell Population Doublings (Pan CD3+ T cells; 1 mM 2-DG, day 10, Table 12): 4.93
- Cultured T Cell Population Doublings (Pan CD3+ T cells; 1 mM 2-DG, day 10, Table 25): 7.19
- Cultured T Cell Population Doublings (Pan CD3+ T cells; 1 mM 2-DG, day 12, Table 12): 4.60
- Cultured T Cell Population Doublings (Pan CD3+ T cells; 1 mM 2-DG, day 12, Table 25): 7.00
- Cultured T Cell Population Doublings (Pan CD3+ T cells; 2 mM 2-DG, day 5, Table 12): 0.15
- Cultured T Cell Population Doublings (Pan CD3+ T cells; 2 mM 2-DG, day 5, Table 25): 1.87
- Cultured T Cell Population Doublings (Pan CD3+ T cells; 2 mM 2-DG, day 7, Table 12): 1.33
- Cultured T Cell Population Doublings (Pan CD3+ T cells; 2 mM 2-DG, day 7, Table 25): 3.53
- Cultured T Cell Population Doublings (Pan CD3+ T cells; 2 mM 2-DG, day 10, Table 12): 3.29
- Cultured T Cell Population Doublings (Pan CD3+ T cells; 2 mM 2-DG, day 10, Table 25): 7.10
- Cultured T Cell Population Doublings (Pan CD3+ T cells; 2 mM 2-DG, day 12, Table 12): 2.44
- Cultured T Cell Population Doublings (Pan CD3+ T cells; 2 mM 2-DG, day 12, Table 25): 6.90
- population doublings (Pan CD3+ T cells; 4 mM 2-DG): about 6 population doublings
- Cultured T Cell Population Doublings (Pan CD3+ T cells; 4 mM 2-DG, day 5, Table 12): 2.24
- Cultured T Cell Population Doublings (Pan CD3+ T cells; 4 mM 2-DG, day 5, Table 25): 1.92
- Cultured T Cell Population Doublings (Pan CD3+ T cells; 4 mM 2-DG, day 7, Table 12): 3.84
- Cultured T Cell Population Doublings (Pan CD3+ T cells; 4 mM 2-DG, day 7, Table 25): 3.95
- Cultured T Cell Population Doublings (Pan CD3+ T cells; 4 mM 2-DG, day 10, Table 12): 6.78
- Cultured T Cell Population Doublings (Pan CD3+ T cells; 4 mM 2-DG, day 10, Table 25): 7.50
- Cultured T Cell Population Doublings (Pan CD3+ T cells; 4 mM 2-DG, day 12, Table 12): 6.63
- Cultured T Cell Population Doublings (Pan CD3+ T cells; 4 mM 2-DG, day 12, Table 25): 7.35
- expansion compared to control (Pan CD3+ T cells; 2-DG at 0.25 mM and 0.5 mM): expansion comparable to control
- effect of 2-DG supplementation on T cell growth (Pan CD3+ T cells; concentrations tested 0.25-4 mM): does not affect T cell growth even with lower concentrations
